# Results: patent US11896704B2, “Compounds useful for the treatment and/or care of the skin, hair, nails and/or mucous membranes” (LUBRIZOL ADVANCED MATERIALS, INC., priority 2017, dated 2024)
# Experiments:
# [1] = tested on: mitochondrial complex II (succinate-coenzyme Q reductase); experiment: Mitochondrial complex II activity in human dermal fibroblasts, colorimetric assay; type: cell-based; details: HDFa, 24 hours
# Method: Measurement of Increase in Mitochondrial Complex II Activity Using an Assay Based on Colorimetric Detection.
# Human Dermal Fibroblasts from adult (HDFa, Life Technologies) are seeded at a density of 750.000 cells/75 cm^2 flask (one flask per condition) in culture medium M106 with Low Serum Growth Supplement (Life Technologies). Cells are grown during 7 days at 37° C. in 5% CO2 humidified air. […]. Non treated cells incubated in culture medium alone are used as basal conditions. After 24 hours of treatment, cells are detached using trypsin and resuspended in 40 ul of Phosphate buffer saline (Sigma). Total protein concentration is measured with a Pierce BCA Protein Assay Kit (BCA Assay, Thermo Scientific) following manufacturer's protocol to adjust the final protein concentration between 2500-3000 ug/ml. Briefly, standards and samples are dispensed and Working Reagent is added to the samples. After 30 minutes of incubation at 37° C., absorbance is measured with a microplate reader (Clariostar®, BMG) at 562 nm.
# Mitochondrial complex II activity is measured with Complex II enzyme activity microplate assay Kit (Abcam) according to the manufacture's protocol. This assay follows the production of ubiquinol (QH2, produced by mitochondrial complex II) coupled to the reduction of a colorimetric dye (DCPIP, 2,6-diclorophenolindophenol). In brief, 50 ul of each sample (adjusted to 2500-3000 ug/ml of total protein amount) is incubated for 2 hours. After that, wells are washed several times and incubated with Activity solution provided with the kit (composed by ubiquinone, succinate and DCPIP). For the determination of mitochondrial complex II activity, colorimetric reduction of DCPIP at Optical Density (OD) 600 nm in a kinetic reaction along 30 minutes is measured with a microplate reader (Clariostar®, BMG). Results are calculated as the rate of decrease in absorbance at OD 600 nm between two points in the linear zone over time.
# […]. These values represent the mean for at least three independent assays.
# [2] = tested on: PER2 (period circadian clock 2); experiment: PER genes expression in young and old HEKa, real time PCR: PER2; type: cell-based, Human; details: 0.5 mg/ml
# Method: In Vitro Study of PER Genes Expression in Young and Old Human Epidermal Keratinocytes (HEKa) Using Real Time PCR Arrays. Human Epidermal Keratinocytes, (HEKa) cells (Life Technologies) from donor one and donor two are seeded at 3.0×10^5 cells/well in 12-well plates and incubated in culture medium, Keratinocyte growth medium supplemented with Mix C39016-CaCl2 solution (Promocell). For synchronization, cells were subjected to two alternative cycles of 12 hours each at 37° C. in 5% CO2 humidified air (day mode) and 33° C. in 5% CO2 humidified air (night mode). 12 hours after starting synchronization, cells are incubated with the synthetic peptide […] (PEP-1, H-[SEQ ID. NO. 2]-NH2) at 0.5 mg/ml in culture medium. Cells treated with medium alone are used as basal condition. At the end of synchronization, cell lysates are collected at 7:30 hour (early morning point). […] After RNA elution, quantification and analysis of purity of RNA samples are performed with a nanodrop (Thermo). […] SYBR Green binds to double-stranded DNA molecules and emits fluorescence which is quantified, and the fluorescence intensity is proportional to the amount of the product in the PCR reaction. […] Fold change relative to the expression of the sample genes and reference genes is calculated using normalized expression (ΔΔ(Ct)) method using CFX Manager SoftwareTM (BioRad).
# [3] = tested on: Human Dermal Fibroblasts (HDFa); experiment: Mitochondrial membrane potential in HDFa, JC-1 fluorescence assay; type: cell-based; details: 0.5 mg/ml, 16 hours
# Method: In Vitro Study of Increasing the Mitochondrial Membrane Potential in Human Dermal Fibroblasts (HDFa) by an Immunofluorescence Assay.
# Human Dermal Fibroblasts from adult (HDFa, Life Technologies) are seeded at a density of 6,000 cells/well (3 wells per condition) in 96-well plates. Cells are seeded in culture medium M106 with Low Serum Growth Supplement (Life Technologies) during 24 hours at 37° C. in 5% CO2 humidified air. […]. Non-treated cells incubated with medium alone are used as basal conditions.
# After 16 hours of treatment, cells are used to quantify mitochondria membrane potential by using JC-1 mitochondrial membrane potential assay kit (Abcam) according to the manufacturer's protocol. Briefly, cells are incubated with a JC-1 working solution prepared with Supplemented Dilution Buffer in the presence of the treatment with the peptide at 0.5 mg/ml at 37° C. 5% CO2 for 30 minutes. […]
# Cells are imaged and mitochondrial membrane potential is measured using Operetta® High Content Imaging System (PerkinElmer, Inc). […] Cell number is quantified by using Hoechst 33342 (ThermoFisher Scientific) staining, a cell-permeant nuclear counterstain that emits blue fluorescence at 460 nm when bound to dsDNA and is excited at 350 nm. For each image, intensity fluorescence from energized and depolarized cells is quantified and normalized against the number of nuclei. […]
substance,measurement,setting,value
H-Phe-Trp-Met-Lys-Arg-Lys-Arg-Val-Pro-NH2 (H-FWMKRKRVP-NH2) [PEP-1],Percentage of mitochondrial complex II activity relative to basal condition (%),[1]; 0.1 mg/mL,166.00%
same,Percentage of mitochondrial complex II activity relative to basal condition (%),[1]; 0.5 mg/mL,142.12%
same,Percentage of mitochondrial complex II activity relative to basal condition (%),[1]; 1 mg/mL,133.00%
same,Fold induction at 7:30 h respect to Basal condition (%),"[2]; PER2, HEKa from donor one",172.0%
same,Fold induction at 7:30 h respect to Basal condition (%),"[2]; PER2, HEKa from donor two",292.0%
same,Percentage of MMP relative to basal conditions (%),[3],130.98%
